Test results published in ChEMBL document CHEMBL5465560, “Selectivity Literature for EUbOPEN Chemogenomic Library” (2024).

Assays:
[1] = target: T1, Serine/threonine-protein kinase Nek1 (Homo sapiens) (UniProt Q96PY6); experiment: Selectivity interaction (Kinase panel (Eurofins)) EUB0001564a NEK1; conditions: at 1 µM
T1 sequence (whole entry): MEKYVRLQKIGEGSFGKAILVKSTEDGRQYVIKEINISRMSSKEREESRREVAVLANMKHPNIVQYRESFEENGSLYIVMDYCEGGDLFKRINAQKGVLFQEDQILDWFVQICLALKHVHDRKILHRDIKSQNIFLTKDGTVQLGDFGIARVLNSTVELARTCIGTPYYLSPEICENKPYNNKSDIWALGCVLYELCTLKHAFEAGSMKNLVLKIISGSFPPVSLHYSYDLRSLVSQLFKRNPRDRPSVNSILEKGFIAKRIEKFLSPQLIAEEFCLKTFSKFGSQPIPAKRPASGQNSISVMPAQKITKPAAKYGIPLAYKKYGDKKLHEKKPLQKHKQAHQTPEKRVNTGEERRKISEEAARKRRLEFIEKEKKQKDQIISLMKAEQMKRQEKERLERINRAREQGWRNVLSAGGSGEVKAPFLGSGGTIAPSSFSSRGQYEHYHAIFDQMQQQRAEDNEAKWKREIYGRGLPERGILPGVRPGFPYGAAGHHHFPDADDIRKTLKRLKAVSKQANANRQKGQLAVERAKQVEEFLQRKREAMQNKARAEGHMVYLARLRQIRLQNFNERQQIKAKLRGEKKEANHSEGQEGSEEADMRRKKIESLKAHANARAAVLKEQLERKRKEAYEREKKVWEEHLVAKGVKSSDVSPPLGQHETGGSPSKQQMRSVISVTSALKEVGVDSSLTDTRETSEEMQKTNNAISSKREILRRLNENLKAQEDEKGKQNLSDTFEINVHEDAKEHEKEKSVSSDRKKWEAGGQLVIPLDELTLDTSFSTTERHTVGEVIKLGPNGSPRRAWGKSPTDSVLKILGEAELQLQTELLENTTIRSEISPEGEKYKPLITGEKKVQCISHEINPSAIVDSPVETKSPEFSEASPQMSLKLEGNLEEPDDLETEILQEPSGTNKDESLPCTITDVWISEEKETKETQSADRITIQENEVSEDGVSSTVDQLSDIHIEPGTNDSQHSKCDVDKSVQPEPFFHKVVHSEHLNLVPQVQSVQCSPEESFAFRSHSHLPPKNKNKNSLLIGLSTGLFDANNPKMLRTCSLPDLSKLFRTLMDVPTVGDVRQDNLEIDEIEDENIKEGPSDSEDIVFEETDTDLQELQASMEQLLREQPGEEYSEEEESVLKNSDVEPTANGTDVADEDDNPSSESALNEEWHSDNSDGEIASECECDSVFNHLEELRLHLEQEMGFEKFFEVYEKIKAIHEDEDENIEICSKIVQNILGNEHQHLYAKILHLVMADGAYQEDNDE

[2] = target: Casein kinase I isoform delta (Homo sapiens, UniProt P48730); experiment: Selectivity interaction (ActivX KiNativ screen (kinase selectivity in THP-1 cell lysates)) EUB0000639a CSNK1D; type: subcellular; conditions: lysate
[3] = target: LIM domain kinase 1 (Homo sapiens) (UniProt P53667); experiment: Selectivity interaction (Ambit KINOMEscan and KiNATiv profiling in Jurkat cells) EUB0000090b LIMK1; type: cell-based; conditions: at 1 µM
[4] = target: T2, Ephrin type-A receptor 1 (Homo sapiens) (UniProt P21709); experiment: Selectivity interaction (ActivX KiNativ screen (ex vivo kinase selectivity in human PBMCs)) EUB0001619a EPHA1; type: cell-based; conditions: PBMC, at 1 µM
T2 sequence (whole entry): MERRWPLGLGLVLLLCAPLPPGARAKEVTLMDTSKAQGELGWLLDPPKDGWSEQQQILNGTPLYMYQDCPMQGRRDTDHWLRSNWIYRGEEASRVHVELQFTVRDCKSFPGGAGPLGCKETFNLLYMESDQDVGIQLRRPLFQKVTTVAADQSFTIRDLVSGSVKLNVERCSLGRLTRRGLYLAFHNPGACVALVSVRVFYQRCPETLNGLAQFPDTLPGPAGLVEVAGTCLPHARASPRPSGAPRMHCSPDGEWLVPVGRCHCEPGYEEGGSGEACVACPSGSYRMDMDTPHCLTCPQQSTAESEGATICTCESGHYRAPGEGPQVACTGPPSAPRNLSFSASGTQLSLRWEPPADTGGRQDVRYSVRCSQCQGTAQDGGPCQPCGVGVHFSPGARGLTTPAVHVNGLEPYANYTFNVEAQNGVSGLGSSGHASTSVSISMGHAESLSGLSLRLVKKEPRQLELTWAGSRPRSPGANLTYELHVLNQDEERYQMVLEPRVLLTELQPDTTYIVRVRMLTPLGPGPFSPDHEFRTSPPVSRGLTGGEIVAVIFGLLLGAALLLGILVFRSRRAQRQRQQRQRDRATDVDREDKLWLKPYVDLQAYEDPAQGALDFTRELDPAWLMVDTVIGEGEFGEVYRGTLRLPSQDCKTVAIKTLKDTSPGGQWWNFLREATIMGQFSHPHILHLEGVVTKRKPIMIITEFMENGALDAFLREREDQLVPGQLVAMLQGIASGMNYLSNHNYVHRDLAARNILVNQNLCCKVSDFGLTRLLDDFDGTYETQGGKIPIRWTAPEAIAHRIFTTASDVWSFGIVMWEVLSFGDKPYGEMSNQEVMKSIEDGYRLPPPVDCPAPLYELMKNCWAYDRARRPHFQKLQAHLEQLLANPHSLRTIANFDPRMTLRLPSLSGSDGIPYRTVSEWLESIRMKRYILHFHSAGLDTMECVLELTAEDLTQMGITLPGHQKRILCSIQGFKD

[5] = tested on: Mast/stem cell growth factor receptor Kit (Homo sapiens), P10721 [V559D]; experiment: (§1) Selectivity interaction (KinomeScan (DiscoverX)) EUB0000607a KIT; conditions: at 10 µM
[6] = tested on: Mast/stem cell growth factor receptor Kit (Homo sapiens), P10721 [A829P]; experiment: as §1; conditions: at 10 µM
[7] = tested on: Mast/stem cell growth factor receptor Kit (Homo sapiens), P10721 [D816H]; experiment: as §1; conditions: at 10 µM
[8] = target: Mast/stem cell growth factor receptor Kit (Homo sapiens, UniProt P10721); experiment: as §1; conditions: at 10 µM
[9] = tested on: Mast/stem cell growth factor receptor Kit (Homo sapiens), P10721 [D816V]; experiment: as §1; conditions: at 10 µM
[10] = tested on: Mast/stem cell growth factor receptor Kit (Homo sapiens), P10721 [L576P]; experiment: as §1; conditions: at 10 µM
[11] = tested on: Mast/stem cell growth factor receptor Kit (Homo sapiens), P10721 [V559D,T670I]; experiment: as §1; conditions: at 10 µM
[12] = tested on: Mast/stem cell growth factor receptor Kit (Homo sapiens), P10721 [V559D,V654A]; experiment: as §1; conditions: at 10 µM
Chain of Mast/stem cell growth factor receptor Kit (Homo sapiens), P10721 [V559D,V654A] (P10721 whole entry V559D/V654A): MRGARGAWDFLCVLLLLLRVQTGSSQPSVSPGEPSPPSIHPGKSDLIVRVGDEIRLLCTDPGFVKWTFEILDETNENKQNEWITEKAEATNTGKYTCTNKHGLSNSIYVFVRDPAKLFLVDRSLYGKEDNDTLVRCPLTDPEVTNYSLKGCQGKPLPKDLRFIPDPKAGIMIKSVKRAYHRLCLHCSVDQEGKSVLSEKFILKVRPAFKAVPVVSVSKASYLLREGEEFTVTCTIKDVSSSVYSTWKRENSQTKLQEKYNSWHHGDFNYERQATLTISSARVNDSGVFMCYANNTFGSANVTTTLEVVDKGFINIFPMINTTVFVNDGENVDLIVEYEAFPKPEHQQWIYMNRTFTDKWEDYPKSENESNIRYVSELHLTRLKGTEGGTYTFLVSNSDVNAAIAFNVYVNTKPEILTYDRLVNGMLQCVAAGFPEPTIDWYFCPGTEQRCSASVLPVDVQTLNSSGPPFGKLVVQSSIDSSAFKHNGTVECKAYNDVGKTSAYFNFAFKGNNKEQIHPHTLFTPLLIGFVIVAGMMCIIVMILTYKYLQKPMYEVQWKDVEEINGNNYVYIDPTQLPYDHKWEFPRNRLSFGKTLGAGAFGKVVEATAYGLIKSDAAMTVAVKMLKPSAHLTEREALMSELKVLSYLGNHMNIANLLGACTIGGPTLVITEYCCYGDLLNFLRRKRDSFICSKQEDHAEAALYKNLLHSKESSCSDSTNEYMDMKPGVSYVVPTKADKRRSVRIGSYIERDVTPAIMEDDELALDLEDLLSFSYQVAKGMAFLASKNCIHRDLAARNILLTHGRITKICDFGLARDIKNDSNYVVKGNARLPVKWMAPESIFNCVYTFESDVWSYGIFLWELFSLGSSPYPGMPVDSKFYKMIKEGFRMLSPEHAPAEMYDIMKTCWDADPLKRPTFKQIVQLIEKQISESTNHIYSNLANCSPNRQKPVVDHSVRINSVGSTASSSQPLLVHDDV

Chain of Casein kinase I isoform delta (P48730 whole entry, looked up, the tested form may be a part, canonical isoform): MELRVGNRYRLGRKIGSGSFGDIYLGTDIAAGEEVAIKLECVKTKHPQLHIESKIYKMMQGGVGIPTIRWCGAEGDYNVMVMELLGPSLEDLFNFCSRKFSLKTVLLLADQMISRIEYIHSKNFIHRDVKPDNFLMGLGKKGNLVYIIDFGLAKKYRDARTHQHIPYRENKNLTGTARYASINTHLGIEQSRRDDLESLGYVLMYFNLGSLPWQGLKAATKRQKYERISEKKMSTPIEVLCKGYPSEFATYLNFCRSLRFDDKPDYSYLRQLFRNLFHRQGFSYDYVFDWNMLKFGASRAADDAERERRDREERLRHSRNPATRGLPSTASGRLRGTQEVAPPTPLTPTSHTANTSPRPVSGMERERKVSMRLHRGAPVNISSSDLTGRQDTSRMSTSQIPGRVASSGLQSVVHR
Chain of Mast/stem cell growth factor receptor Kit (Homo sapiens), P10721 [D816H] (P10721 whole entry D816H): as the sequence (P10721 whole entry V559D/V654A) above, with D559V, A654V, D816H counted along it
Chain of Mast/stem cell growth factor receptor Kit (Homo sapiens), P10721 [L576P] (P10721 whole entry L576P): as the sequence (P10721 whole entry V559D/V654A) above, with D559V, L576P, A654V counted along it
Chain of Mast/stem cell growth factor receptor Kit (Homo sapiens), P10721 [V559D] (P10721 whole entry V559D): as the sequence (P10721 whole entry V559D/V654A) above, with A654V counted along it
Chain of Mast/stem cell growth factor receptor Kit (Homo sapiens), P10721 [V559D,T670I] (P10721 whole entry V559D/T670I): as the sequence (P10721 whole entry V559D/V654A) above, with A654V, T670I counted along it
Chain of Mast/stem cell growth factor receptor Kit (P10721 whole entry): as the sequence (P10721 whole entry V559D/V654A) above, with D559V, A654V counted along it
Chain of LIM domain kinase 1 (Homo sapiens) (P53667 whole entry, looked up, the tested form may be a part): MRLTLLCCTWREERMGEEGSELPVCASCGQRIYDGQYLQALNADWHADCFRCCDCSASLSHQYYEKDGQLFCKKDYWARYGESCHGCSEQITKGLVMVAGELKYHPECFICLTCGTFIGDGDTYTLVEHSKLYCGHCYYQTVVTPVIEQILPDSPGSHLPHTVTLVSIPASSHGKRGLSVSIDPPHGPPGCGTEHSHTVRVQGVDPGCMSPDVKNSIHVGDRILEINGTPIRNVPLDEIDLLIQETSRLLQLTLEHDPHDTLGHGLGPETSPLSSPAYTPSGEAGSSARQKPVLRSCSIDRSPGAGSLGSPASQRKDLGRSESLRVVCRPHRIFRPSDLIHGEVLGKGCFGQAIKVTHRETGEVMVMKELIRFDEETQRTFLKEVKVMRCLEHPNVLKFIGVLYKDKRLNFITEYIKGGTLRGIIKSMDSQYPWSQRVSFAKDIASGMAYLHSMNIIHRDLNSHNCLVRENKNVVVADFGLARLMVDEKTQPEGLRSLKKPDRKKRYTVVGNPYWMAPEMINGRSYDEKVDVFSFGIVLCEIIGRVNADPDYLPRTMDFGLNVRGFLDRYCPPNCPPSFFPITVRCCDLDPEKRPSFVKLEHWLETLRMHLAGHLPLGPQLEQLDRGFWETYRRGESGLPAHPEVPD
Chain of Mast/stem cell growth factor receptor Kit (Homo sapiens), P10721 [A829P] (P10721 whole entry A829P): as the sequence (P10721 whole entry V559D/V654A) above, with D559V, A654V, A829P counted along it
Chain of Mast/stem cell growth factor receptor Kit (Homo sapiens), P10721 [D816V] (P10721 whole entry D816V): as the sequence (P10721 whole entry V559D/V654A) above, with D559V, A654V, D816V counted along it

`CC[C@@H](Nc1c(C#N)c(-c2ccc(-c3cccc(C)c3F)cc2)nc2cnccc12)C(=O)O` [BAY-091] was tested. Which % of inhibition [1] did it give?
The % of inhibition was 24.4%.

What does the source list for `CC[C@@H]1[C@H](F)C(=O)N[C@@H]1COc1nccc2cc(C(N)=O)c(OC)cc12` [ZIMLOVISERTIB]?
% of inhibition ([2]; at 0.01 µM): -6.6%; % of inhibition ([2]; at 0.04 µM): 20.3%; % of inhibition ([2]; at 0.2 µM): 53%; % of inhibition ([2]; at 1 µM): 77.8%; % of inhibition ([2]; at 5 µM): 94.8%

How did the % of control [3] turn out when `CN(C)C/C=C/C(=O)Nc1ccc(C(=O)N2CCCC(Nc3ncc(Cl)c(-c4c[nH]c5ccccc45)n3)C2)cc1` (stereo unspecified) was run?
Its % of control is 100%.

`N#Cc1cccc(-c2c[nH]c3ncnc(N4CCOCC4)c23)c1` was tested. Which % of inhibition [4] did it give?
Its % of inhibition is -3%.

With `CNC(=O)Nc1ccc(-c2nc(N3CC4CCC(C3)O4)c3cnn(C4CCC5(CC4)OCCO5)c3n2)cc1` as the molecule, how does the % of control [5] read?
The % of control was 85%.

And the % of control [6]?
The % of control was 89%.

And the % of control [7]?
The % of control was 86%.

And the % of control [8]?
The % of control was 91%.

And the % of control [9]?
The % of control was 82%.

And the % of control [10]?
The % of control was 85%.

What about the % of control [11] of the same molecule?
The % of control was 100%.

And the % of control [12]?
Its % of control is 100%.
